Reference: patent US20220370416A1, “COMPOUNDS AND METHODS FOR TARGETED DEGRADATION OF KRAS” (Arvinas Operations, Inc., priority 2020, published 2022)

What was measured:
HiBit-KRAS^G12C [1] = molecular target: T1, HiBit-KRAS^G12C (Homo sapiens, UniProt P01116, G12C); assay: HiBit degradation assay in SW1573 HiBit-KRas^G12C cells; type: cell-based; set-up: expressed in transfected cells; host or cells: SW1573 (clone E6), modified pcDNA3.1 vector, TK promoter; details: 24 hours
How it was run: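 HiBit-KRAS G12C degradation was measured after a 24 h compound exposure (titrated 10 μM–20 nM) in engineered SW1573 cells. Lytic HiBit luminescence, expressed relative to DMSO controls, yielded DC50 and Dmax from 4-parameter fits. Concentrations causing ≥50% loss in alamar blue viability were omitted as cytotoxic.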

HiBit-KRAS^G12C [2] = molecular target: T1, HiBit-KRAS^G12C; assay: HiBit degradation assay in MiaPaCa-2 HiBit-KRas^G12C cells; type: cell-based; details: 24 hours; for Dmax: maximum degradation
How it was run: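 DC50 and Dmax come from 4-parameter fits of DMSO-normalized HiBit luminescence after 24 hours' exposure at 37° C to 10 μM–20 nM compound in 0.1% or 0.5% DMSO. Cells: MiaPaCa-2 carrying one endogenously HiBit-tagged KRAS^G12C allele; concentrations causing ≥50% […] viability loss (alamar blue) excluded.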

[3] = SW1573, read-out: KRas^G12C-HiBiT (SW1573; 0.5% DMSO) Dmax**, SW1573 HiBit-KRas^G12C, 0.5% DMSO
[4] = SW1573, read-out: KRas^G12C-HiBit (SW1573; 0.1% DMSO) Dmax**, SW1573 HiBit-KRas^G12C, 0.1% DMSO
[5] = SW1573 HiBit-KRas^G12C, 0.1% DMSO, read-out: KRas^G12C-HIBit (SW1573; 0.1% DMSO) DC50*
[6] = MIA PaCa-2, read-out: KRas^G12C-HiBiT (MiaPaCa; 0.1% DMSO) DMax, MiaPaCa-2 HiBit-KRas^G12C cells, 0.1% DMSO
[7] = MIA PaCa-2, read-out: KRas^G12C-HiBiT (MiaPaCa; 0.5% DMSO) DMax, MiaPaCa-2 HiBit-KRas^G12C cells, 0.5% DMSO
[8] = SW1573, SW1573 HiBit-KRas^G12C, 0.1% DMSO, read-out: KRas^G12C-HiBit (SW1573; 0.1% DMSO) Dmax**
[9] = SW1573, SW1573 HiBit-KRas^G12C, 0.5% DMSO, read-out: KRas^G12C-HiBiT (SW1573; 0.5% DMSO) Dmax**
[10] = MIA PaCa-2, MiaPaCa-2 HiBit-KRas^G12C cells, 0.1% DMSO, read-out: KRas^G12C-HiBiT (MiaPaCa; 0.1% DMSO) DMax
[11] = MIA PaCa-2, MiaPaCa-2 HiBit-KRas^G12C cells, 0.5% DMSO, read-out: KRas^G12C-HiBiT (MiaPaCa; 0.5% DMSO) DMax
[12] = read-out: KRas^G12C-HiBiT (SW1573; 0.5% DMSO) IC50***, SW1573 HiBit-KRas^G12C, 0.5% DMSO
[13] = read-out: KRas^G12C-HiBiT (MiaPaCa; 0.5% DMSO) IC50, MiaPaCa-2 HiBit-KRas^G12C cells, 0.5% DMSO

T1 sequence (P01116 1-186 isoform P01116-2 G12C limits assumed): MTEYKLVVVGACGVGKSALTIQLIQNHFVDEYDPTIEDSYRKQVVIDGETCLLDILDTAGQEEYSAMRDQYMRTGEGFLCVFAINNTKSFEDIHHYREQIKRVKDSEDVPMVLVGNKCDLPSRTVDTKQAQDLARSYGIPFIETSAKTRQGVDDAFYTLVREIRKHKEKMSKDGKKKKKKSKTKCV

| Structure (SMILES) | DC50 (HiBit-KRAS^G12C [1]; [5]) | Dmax (HiBit-KRAS^G12C [1]; [8]) | Dmax (HiBit-KRAS^G12C [1]; [9]) | Dmax (HiBit-KRAS^G12C [2]; [10]) | Dmax (HiBit-KRAS^G12C [2]; [11]) | DC50 (HiBit-KRAS^G12C [1]; [12]) | DC50 (HiBit-KRAS^G12C [2]; [13]) | DC50 (HiBit-KRAS^G12C [2]; read-out: KRas^G12C-HiBiT (MiaPaCa; 0.1% DMSO) IC50, MiaPaCa-2 HiBit-KRas^G12C cells, 0.1% DMSO) | Dmax (HiBit-KRAS^G12C [1]; [3]) | Dmax (HiBit-KRAS^G12C [1]; [4]) | Dmax (HiBit-KRAS^G12C [2]; [6]) | Dmax (HiBit-KRAS^G12C [2]; [7]) |
| --- | --- | --- | --- | --- | --- | --- | --- | --- | --- | --- | --- | --- |
| C=CC(=O)N1CCN(c2nc(O[C@H]3CCC[C@@H]3N3CCC(COCC(=O)N[C@H](C(=O)N4C[C@H](O)C[C@H]4C(=O)N[C@@H](C)c4ccc(-c5scnc5C)cc4)C(C)(C)C)CC3)nc3c(F)c(-c4cc(O)cc5ccccc45)c(Cl)cc23)CC1 [Compound 12, (2S,4R)-1-[(2S)-2-[2-({1-[(1S,2S)-2-{[6-chloro-8-fluoro-7-(3-hydroxynaphthalen-1-yl)-4-[4-(prop-2-enoyl)piperazin-1-yl]quinazolin-2-yl]oxy}cyclopentyl]piperidin-4-yl}methoxy)acetamido]-3,3-dimethylbutanoyl]-4-hydroxy-N-[(1S)-1-[4-(4-methyl-1,3-thiazol-5-yl)phenyl]ethyl]pyrrolidine-2-carboxamide] | 100 to 1000 nM |  |  |  |  |  |  |  | 35 to 70% | 35 to 70% | < 35% | < 35% |
| C=CC(=O)N1CCN(c2nc(O[C@H](C)CN3CCC(OCCOCC(=O)N[C@H](C(=O)N4C[C@H](O)C[C@H]4C(=O)N[C@@H](C)c4ccc(-c5scnc5C)cc4)C(C)(C)C)CC3)nc3c(F)c(-c4cc(O)cc5ccccc45)c(Cl)cc23)C[C@@H]1CC#N [Compound 33, (2S,4R)-1-[(2S)-2-{2-[2-({1-[(2R)-2-({6-chloro-4-[(3S)-3-(cyanomethyl)-4-(prop-2-enoyl)piperazin-1-yl]-8-fluoro-7-(3-hydroxynaphthalen-1-yl)quinazolin-2-yl}oxy)propyl]piperidin-4-yl}oxy)ethoxy]acetamido}-3,3-dimethylbutanoyl]-4-hydroxy-N-[(1S)-1-[4-(4-methyl-1,3-thiazol-5-yl)phenyl]ethyl]pyrrolidine-2-carboxamide] | 100 to 1000 nM | 35 to 70% | 35 to 70% | 35 to 70% | 35 to 70% |  |  |  |  |  |  |  |
| C=CC(=O)N1CCN(c2nc(OCCN3CCC(OCCOCC(=O)N[C@H](C(=O)N4C[C@H](O)C[C@H]4C(=O)N[C@@H](C)c4ccc(-c5scnc5C)cc4)C(C)(C)C)CC3)nc3c(F)c(-c4cc(O)cc5ccccc45)c(Cl)cc23)C[C@@H]1CC#N [Compound 32, (2S,4R)-1-[(2S)-2-{2-[2-({1-[2-({6-chloro-4-[(3S)-3-(cyanomethyl)-4-(prop-2-enoyl)piperazin-1-yl]-8-fluoro-7-(3-hydroxynaphthalen-1-yl)quinazolin-2-yl}oxy)ethyl]piperidin-4-yl}oxy)ethoxy]acetamido}-3,3-dimethylbutanoyl]-4-hydroxy-N-[(1S)-1-[4-(4-methyl-1,3-thiazol-5-yl)phenyl]ethyl]pyrrolidine-2-carboxamide] | 100 to 1000 nM | 35 to 70% | > 70% | 35 to 70% | > 70% |  |  |  |  |  |  |  |
| C=CC(=O)N1CCN(c2nc(O[C@@H]3CCC[C@H]3N3CCC(COCC(=O)N[C@H](C(=O)N4C[C@H](O)C[C@H]4C(=O)N[C@@H](C)c4ccc(-c5scnc5C)cc4)C(C)(C)C)CC3)nc3c(F)c(-c4cc(O)cc5ccccc45)c(Cl)cc23)CC1 [Compound 13, (2S,4R)-1-[(2S)-2-[2-({1-[(1R,2R)-2-{[6-chloro-8-fluoro-7-(3-hydroxynaphthalen-1-yl)-4-[4-(prop-2-enoyl)piperazin-1-yl]quinazolin-2-yl]oxy}cyclopentyl]piperidin-4-yl}methoxy)acetamido]-3,3-dimethylbutanoyl]-4-hydroxy-N-[(1S)-1-[4-(4-methyl-1,3-thiazol-5-yl)phenyl]ethyl]pyrrolidine-2-carboxamide] | 100 to 1000 nM |  |  |  |  |  |  |  | 35 to 70% | 35 to 70% | 35 to 70% | 35 to 70% |

Further lines, with some results ahead:

| DC50 (HiBit-KRAS^G12C [1]; [5]) | Dmax (HiBit-KRAS^G12C [1]; [8]) | Dmax (HiBit-KRAS^G12C [1]; [9]) | Dmax (HiBit-KRAS^G12C [2]; [10]) | Dmax (HiBit-KRAS^G12C [2]; [11]) | DC50 (HiBit-KRAS^G12C [1]; [12]) | DC50 (HiBit-KRAS^G12C [2]; [13]) | DC50 (HiBit-KRAS^G12C [2]; read-out: KRas^G12C-HiBiT (MiaPaCa; 0.1% DMSO) IC50, MiaPaCa-2 HiBit-KRas^G12C cells, 0.1% DMSO) | Structure (SMILES) | Dmax (HiBit-KRAS^G12C [1]; [3]) | Dmax (HiBit-KRAS^G12C [1]; [4]) | Dmax (HiBit-KRAS^G12C [2]; [6]) | Dmax (HiBit-KRAS^G12C [2]; [7]) |
| --- | --- | --- | --- | --- | --- | --- | --- | --- | --- | --- | --- | --- |
|  |  |  |  |  | < 100 nM | 100 to 1000 nM |  | C=CC(=O)N1CCN(c2nc(OCCN3CCC(COc4cc([C@H](C(=O)N5C[C@H](O)C[C@H]5C(=O)N[C@@H](C)c5ccc(-c6ccnn6C)cc5)C(C)C)on4)CC3)nc3c(F)c(-c4cc(O)cc5ccccc45)c(Cl)cc23)C[C@@H]1CC#N [Compound 157, (2S,4R)-1-[(2R)-2-[3-({1-[2-({6-chloro-4-[(3S)-3-(cyanomethyl)-4-(prop-2-enoyl)piperazin-1-yl]-8-fluoro-7-(3-hydroxynaphthalen-1-yl)quinazolin-2-yl}oxy)ethyl]piperidin-4-yl}methoxy)-1,2-oxazol-5-yl]-3-methylbutanoyl]-4-hydroxy-N-[(1S)-1-[4-(1-methyl-1H-pyrazol-5-yl)phenyl]ethyl]pyrrolidine-2-carboxamide] |  |  |  |  |
|  |  |  |  | < 35% | > 1000 nM | 100 to 1000 nM |  | C=CC(=O)N1CCN(c2nc(OCCN3CCC(COc4cc([C@@H](C(=O)N5C[C@H](O)C[C@H]5C(=O)N[C@@H](C)c5ccc(-c6scnc6C)cc5)C(C)C)on4)CC3)nc3c(F)c(-c4cc(O)cc5ccccc45)c(Cl)cc23)C[C@@H]1CC#N (atropisomer, axis not shown) [Compound 154, (2S,4R)-1-[(2S)-2-[3-({1-[2-({6-chloro-4-[(3S)-3-(cyanomethyl)-4-(prop-2-enoyl)piperazin-1-yl]-8-fluoro-7-(3-hydroxynaphthalen-1-yl)quinazolin-2-yl}oxy)ethyl]piperidin-4-yl}methoxy)-1,2-oxazol-5-yl]-3-methylbutanoyl]-4-hydroxy-N-[(1S)-1-[4-(4-methyl-1,3-thiazol-5-yl)phenyl]ethyl]pyrrolidine-2-carboxamide] |  |  |  |  |
| 100 to 1000 nM | 35 to 70% | 35 to 70% | 35 to 70% | 35 to 70% |  |  |  | C=CC(=O)N1CCN(c2nc(O[C@H](C)CN3CCC(OCCOCC(=O)N[C@H](C(=O)N4C[C@H](O)C[C@H]4C(=O)N[C@@H](C)c4ccc(-c5scnc5C)cc4)C(C)(C)C)CC3)nc3c(F)c(-c4cc(O)cc5ccccc45)c(Cl)cc23)CC1 (atropisomer, axis not shown) [Compound 86, (2S,4R)-1-[(2S)-2-{2-[2-({1-[(2R)-2-{[6-chloro-8-fluoro-7-(3-hydroxynaphthalen-1-yl)-4-[4-(prop-2-enoyl)piperazin-1-yl]quinazolin-2-yl]oxy}propyl]piperidin-4-yl}oxy)ethoxy]acetamido}-3,3-dimethylbutanoyl]-4-hydroxy-N-[(1S)-1-[4-(4-methyl-1,3-thiazol-5-yl)phenyl]ethyl]pyrrolidine-2-carboxamide] |  |  |  |  |
|  |  |  |  |  | 100 to 1000 nM | > 1000 nM |  | C=C(F)C(=O)N1CCN(c2nc(OCCN3CCC(C)(COc4cc([C@@H](C(=O)N5C[C@H](O)C[C@H]5C(=O)N[C@@H](C)c5ccc(-c6ccnn6C)cc5)C(C)C)on4)CC3)nc3c(F)c(-c4cc(O)cc5ccccc45)c(Cl)cc23)C[C@@H]1CC#N (atropisomer, axis not shown) [Compound 125, (2S,4R)-1-[(2S)-2-[3-({1-[2-({6-chloro-4-[(3S)-3-(cyanomethyl)-4-(2-fluoroprop-2-enoyl)piperazin-1-yl]-8-fluoro-7-(3-hydroxynaphthalen-1-yl)quinazolin-2-yl}oxy)ethyl]-4-methylpiperidin-4-yl}methoxy)-1,2-oxazol-5-yl]-3-methylbutanoyl]-4-hydroxy-N-[(1S)-1-[4-(1-methyl-1H-pyrazol-5-yl)phenyl]ethyl]pyrrolidine-2-carboxamide] |  |  |  |  |
| 100 to 1000 nM | < 35% | 35 to 70% |  |  | > 1000 nM | > 1000 nM | > 1000 nM | C=CC(=O)N1CCN(c2nc(O[C@H](C)CN3CCC(OCCOCC(=O)N[C@H](C(=O)N4C[C@H](O)C[C@H]4C(=O)N[C@@H](C)c4ccc(-c5scnc5C)cc4)C(C)(C)C)CC3)nc3c(F)c(-c4c(O)cccc4F)c(Cl)cc23)CC1 [Compound 61, (2S,4R)-1-[(2S)-2-{2-[2-({1-[(2R)-2-{[6-chloro-8-fluoro-7-(2-fluoro-6-hydroxyphenyl)-4-[4-(prop-2-enoyl)piperazin-1-yl]quinazolin-2-yl]oxy}propyl]piperidin-4-yl}oxy)ethoxy]acetamido}-3,3-dimethylbutanoyl]-4-hydroxy-N-[(1S)-1-[4-(4-methyl-1,3-thiazol-5-yl)phenyl]ethyl]pyrrolidine-2-carboxamide] |  |  |  |  |
